In patent US5006515A, “Pharmaceuticals, phosphorus-containing 2-isoxazolines and isoxazoles contained therein” (Hoechst Aktiengesellschaft, priority 1987, dated 1991):

Key:
[1] = test system: active Arthus reaction; experiment: Active Arthus reaction in the rat; format: in vivo, Sprague-Dawley rats; conditions: Rattus norvegicus, po, 4 h, oral dose 35 mg/kg, 4 h after ovalbumin challenge; read-out: Active Arthus reaction % change
Method: The experimental animals used were female and male Sprague-Dawley rats with a body weight between 80 and 100 g which received subcutaneous injections into the tail-head of 0.5 ml of an emulsion of pertussis vaccine and ovalbumin in liquid paraffin. After two weeks, the rats were divided into groups each of 8 animals. 24 hours and 1 hour before induction of the Arthus reaction by injection of 0.1 ml of a 0.4% strength ovalbumin solution into the right hind paw, the particular test substance or the pure vehicle (positive control) was administered orally, sodium chloride solution was injected into the left paw. One group of unsensitized animals (negative control group) was likewise treated with ovalbumin in order to be able to rule out nonspecific reactions to the protein. The parameter used for measuring the action of the product was the percentage change in the increase in paw volume compared with that in the control group which was sensitized but untreated (positive control) 4 hours after ovalbumin challenge, when the swelling had reached its maximum.

[2] = Acute toxicity; parameters: species or system mice; conditions: mouse, in vivo, iv, single dose, mortality within 7 days
Method: The LD50 values were determined by the standard method via the mortality occurring within 7 days in NMRI (Naval Medical Research Institute) mice (6 animals per dose) after a single intraperitoneal (i.p.) or intravenous (i.v.) dose.

[3] = biological target: leucine aminopeptidase; experiment: Inhibition of leucine aminopeptidase; format: biochemical; conditions: substrate L-leucine 4-nitroanilide
Method: The activity of the enzyme aminopeptidase B was determined photometrically using the substrate L-lysine 2-naphthylamide at room temperature. […] In the same way, the inhibition of leucine aminopeptidase was investigated using L-leucine 4-nitroanilide as enzyme substrate. The IC50 values are compiled in Table 6.

[4] = test system: DTH reaction to sheep erythrocytes; experiment: Delayed-type hypersensitivity (DTH) reaction to sheep erythrocytes; format: in vivo, female NMRI mice
Method: Groups each comprising 5 female NMRI mice with a body weight of 18 to 20 g were formed, and each animal was given 10^6 or 10^9 sheep red blood cells intravenously. Sheep erythrocytes are regarded in immunology as a standard antigen with which it is possible to check cellular and humoral immunoreactivity, especially the functioning of the T-cell-dependent component of the immune system, the so-called T-helper cells. The test substances were administered, in intraperitoneal doses of 5 to 100 mg/kg in physiological saline, at the same time as the antigen. After 5 days, each animal was given an injection of 2×10^8 sheep erythrocytes into the footpad. 24 hours later, the swelling of the foot was measured. The foot swelling is induced by a skin reaction of the delayed type (DTH reaction) and, as is known to those skilled in the art, is a measure of the cellular immune response (J. Immunol. 101 (1968), 830-845). The test results obtained with the product of Example 34, by way of example, are compiled in Table 7 and illustrate that the compounds of the formula I--administered prophylactically--are able to increase the cellular immune response after immunization with the antigen by stimulation of the T-cell system, with the stimulant action reaching its optimum in this experiment at a dose of 25 mg/kg.

[5] = test system: antibodies against E. coli organisms; experiment: Antibody response of the mouse to dead E. coli organisms (ELISA); format: in vivo, female NMRI mice; conditions: for Antibody response to dead E. coli organisms, IgM: 10-day value; for Antibody response to dead E. coli organisms, IgG: 20-day value
Method: (§1) Groups each containing 5 female NMRI mice with a body weight of 18 to 20 g were formed, and each of the animals received either intravenous administration of 10^8 heat-killed E coli bacteria or 300 Lf (limes of flocculation) of tetanus toxoid. Oral administration of the test substance in physiological saline (PBS) in doses of 5, 10, 20, 40 or 80 mg/kg, or of the pure vehicle (control groups), was carried out at the same time as administration of the antigen. After 10 and 20 days, blood was taken from the retroorbital venous plexus of the mice and, in the sera obtained therefrom, the IgG and IgM antibodies against E. coli organisms and tetanus toxoid were determined with the aid of the ELISA technique known to those skilled in the art, using homologous lipopolysaccharide from E. coli and tetanus toxoid, respectively, as antigen. The magnitude of the extinctions measured in the photometer is a measure of the amount of antibodies formed.

[6] = test system: antibodies against tetanus toxoid; experiment: Antibody response of the mouse to tetanus toxoid (ELISA); format: in vivo, female NMRI mice; conditions: 20-day value
Method: as §1

Compound: O=P(O)(O)C1CC(c2ccccc2)=NO1 (racemic) [Example 34, 3-Phenyl-2-isoxazolin-5-ylphosphonic acid]
- change in vivo at 35 mg/kg [1]: -16%
- LD50 at 168 h [2]: 200 to 300 mg/kg
- Leucine aminopeptidase IC50 [3]: 24 μug/ml
- % Foot swelling after immunization ([4]; 10^6 erythrocytes, 5.0 mg/kg 1x i.p.): 25.3 ± 5.8%
- % Foot swelling after immunization ([4]; 10^6 erythrocytes, 10.0 mg/kg 1x i.p.): 28.9 ± 7.7%
- % Foot swelling after immunization ([4]; 10^6 erythrocytes, 12.5 mg/kg 1x i.p.): 29.9 ± 3.5%
- % Foot swelling after immunization ([4]; 10^6 erythrocytes, 20.0 mg/kg 1x i.p.): 32.5 ± 3.0%
- % Foot swelling after immunization ([4]; 10^6 erythrocytes, 25.0 mg/kg 1x i.p.): 33.7 ± 6.6%
- % Foot swelling after immunization ([4]; 10^6 erythrocytes, 40.0 mg/kg 1x i.p.): 29.7 ± 4.7%
- % Foot swelling after immunization ([4]; 10^6 erythrocytes, 50.0 mg/kg 1x i.p.): 29.2 ± 6.9%
- % Foot swelling after immunization ([4]; 10^6 erythrocytes, 100.0 mg/kg 1x i.p.): 27.3 ± 4.6%
- % Foot swelling after immunization ([4]; 10^9 erythrocytes, 5.0 mg/kg 1x i.p.): 22.8 ± 3.5%
- % Foot swelling after immunization ([4]; 10^9 erythrocytes, 10.0 mg/kg 1x i.p.): 24.1 ± 5.7%
- % Foot swelling after immunization ([4]; 10^9 erythrocytes, 12.5 mg/kg 1x i.p.): 26.1 ± 8.9%
- % Foot swelling after immunization ([4]; 10^9 erythrocytes, 20.0 mg/kg 1x i.p.): 30.5 ± 6.5%
- % Foot swelling after immunization ([4]; 10^9 erythrocytes, 25.0 mg/kg 1x i.p.): 34.1 ± 7.4%
- % Foot swelling after immunization ([4]; 10^9 erythrocytes, 40.0 mg/kg 1x i.p.): 32.8 ± 5.6%
- % Foot swelling after immunization ([4]; 10^9 erythrocytes, 50.0 mg/kg 1x i.p.): 28.1 ± 4.1%
- % Foot swelling after immunization ([4]; 10^9 erythrocytes, 100.0 mg/kg 1x i.p.): 26.6 ± 5.0%
- dose at which the stimulant action (DTH reaction) reaches its optimum ([4]; i.p.): 25 mg/kg
- Relative stimulation of the DTH reaction ([4]; single i.p. dose of 40 mg/kg, maximal stimulation by Example 34 = 100%): 100%
- Antibody response to dead E. coli organisms, IgM ([5]; 5 mg/kg 1 × p.o.): 1217 ± 264 mE492nm
- Antibody response to dead E. coli organisms, IgG ([5]; 5 mg/kg 1 × p.o.): 1377 ± 324 mE492nm
- Antibody response to dead E. coli organisms, IgM ([5]; 10 mg/kg 1 × p.o.): 1411 ± 179 mE492nm
- Antibody response to dead E. coli organisms, IgG ([5]; 10 mg/kg 1 × p.o.): 1663 ± 191 mE492nm
- Antibody response to dead E. coli organisms, IgM ([5]; 20 mg/kg 1 × p.o.): 1657 ± 231 mE492nm
- Antibody response to dead E. coli organisms, IgG ([5]; 20 mg/kg 1 × p.o.): 1951 ± 468 mE492nm
- Antibody response to dead E. coli organisms, IgM ([5]; 40 mg/kg 1 × p.o.): 1523 ± 288 mE492nm
- Antibody response to dead E. coli organisms, IgG ([5]; 40 mg/kg 1 × p.o.): 2434 ± 312 mE492nm
- Antibody response to dead E. coli organisms, IgM ([5]; 80 mg/kg 1 × p.o.): 1459 ± 208 mE492nm
- Antibody response to dead E. coli organisms, IgG ([5]; 80 mg/kg 1 × p.o.): 2217 ± 273 mE492nm
- Antibody response to tetanus toxoid, IgG ([6]; 5 mg/kg 1 × p.o.): 865 ± 182 mE492nm
- Antibody response to tetanus toxoid, IgG ([6]; 10 mg/kg 1 × p.o.): 1213 ± 255 mE492nm
- Antibody response to tetanus toxoid, IgG ([6]; 20 mg/kg 1 × p.o.): 1852 ± 261 mE492nm
- Antibody response to tetanus toxoid, IgG ([6]; 40 mg/kg 1 × p.o.): 1357 ± 348 mE492nm
- Antibody response to tetanus toxoid, IgG ([6]; 80 mg/kg 1 × p.o.): 1154 ± 232 mE492nm
